Read-outs that look alike come from different tables or passages of the source.
How the values were obtained:
[1] = molecular target: T1, full-length human AR (Homo sapiens, UniProt P10275); assay: AR antagonism, reporter gene assay in hAR/HEK293 cells; format: cell-based; conditions: HEK293 cells stably transfected with full-length human AR and androgen responsive luciferase reporter; co-treated with submaximal testosterone (usually 0.45 nM); 1% DMSO; triplicates
T1 construct: expression vector encoding full-length human AR; expressed in transfected cells; host or cells: HEK293 (hAR/HEK293 cells)
T1 sequence (P10275 1-920): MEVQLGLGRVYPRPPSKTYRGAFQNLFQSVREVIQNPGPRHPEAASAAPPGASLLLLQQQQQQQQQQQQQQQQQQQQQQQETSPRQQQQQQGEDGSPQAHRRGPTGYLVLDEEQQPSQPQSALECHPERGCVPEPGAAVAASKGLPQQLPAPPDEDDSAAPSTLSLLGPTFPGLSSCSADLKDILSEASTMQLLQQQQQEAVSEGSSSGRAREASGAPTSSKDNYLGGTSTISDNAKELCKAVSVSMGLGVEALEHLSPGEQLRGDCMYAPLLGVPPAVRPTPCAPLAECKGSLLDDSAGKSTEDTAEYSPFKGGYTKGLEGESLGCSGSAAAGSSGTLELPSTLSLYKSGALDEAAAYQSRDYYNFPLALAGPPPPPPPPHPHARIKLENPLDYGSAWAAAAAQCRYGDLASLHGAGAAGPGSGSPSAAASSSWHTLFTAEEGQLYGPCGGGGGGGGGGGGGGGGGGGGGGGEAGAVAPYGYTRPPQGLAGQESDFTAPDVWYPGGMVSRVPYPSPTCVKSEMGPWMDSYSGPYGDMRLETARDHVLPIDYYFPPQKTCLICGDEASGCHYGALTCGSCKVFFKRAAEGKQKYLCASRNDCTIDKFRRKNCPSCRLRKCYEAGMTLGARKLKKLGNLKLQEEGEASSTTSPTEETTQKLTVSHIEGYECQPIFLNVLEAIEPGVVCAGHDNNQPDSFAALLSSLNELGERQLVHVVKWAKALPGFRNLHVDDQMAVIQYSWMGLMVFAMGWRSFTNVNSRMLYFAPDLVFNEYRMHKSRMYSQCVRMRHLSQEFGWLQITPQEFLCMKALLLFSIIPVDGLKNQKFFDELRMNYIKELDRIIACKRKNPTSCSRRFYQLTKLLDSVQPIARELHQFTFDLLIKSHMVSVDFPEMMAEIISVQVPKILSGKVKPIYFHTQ
Description: Antagonism of test compounds for AR was measured by reporter gene assay in human embryonic kidney (HEK293) cells stably transfected with an expression vector encoding full-length human AR and androgen responsive luciferase reporter gene construct (hAR/HEK293 cells). To determine antagonism for hAR, the cells were treated simultaneously with increasing concentrations of the test compound and submaximal concentration of testosterone (usually 0.45 nM). The final DMSO concentration was 1%. All test compounds were studied in triplicates. The cells were incubated for […] before measurement of luciferase activity using Luciferase Assay System (Promega Corporation).

[2] = molecular target: T2, 17,20 lyase (CYP17) (Homo sapiens, UniProt P05093); assay: 17,20 lyase (CYP17) inhibition, acetic acid release assay (AARA) on H295R cells; format: cell-based
T2 construct: endogenous in cells; host or cells: H295R human adrenocortical carcinoma cells
T2 sequence (P05093 1-508): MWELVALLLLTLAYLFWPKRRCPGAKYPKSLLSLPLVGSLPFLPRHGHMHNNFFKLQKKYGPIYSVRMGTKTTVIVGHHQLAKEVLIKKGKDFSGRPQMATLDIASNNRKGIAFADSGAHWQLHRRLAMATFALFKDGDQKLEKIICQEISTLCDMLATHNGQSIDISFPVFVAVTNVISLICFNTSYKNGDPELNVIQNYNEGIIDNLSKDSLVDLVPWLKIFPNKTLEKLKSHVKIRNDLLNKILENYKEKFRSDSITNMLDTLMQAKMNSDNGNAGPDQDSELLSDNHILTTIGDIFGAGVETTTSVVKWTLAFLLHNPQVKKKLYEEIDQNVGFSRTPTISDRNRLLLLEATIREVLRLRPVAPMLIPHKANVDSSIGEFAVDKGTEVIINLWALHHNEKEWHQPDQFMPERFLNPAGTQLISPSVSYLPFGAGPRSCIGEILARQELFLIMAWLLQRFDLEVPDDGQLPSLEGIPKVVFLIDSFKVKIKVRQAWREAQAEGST
Description: The ability of the test compounds to inhibit 17,20 lyase catalysed conversion of 17α-hydroxypregnenolone to dehydroepiandrosterone and acetic acid was measured by acetic acid release assay (AARA) on human H295R adrenocortical carcinoma cell line (Grigoryev, D. N. et al., Analytical Biochemistry 1999; 267:319-330). […] The final DMSO concentration was 1%. Cell culture medium was extracted with dextran-coated charcoal suspension (Isomaa, V. et al., Endocrinology 1982; 111(3):833-843). ^3H-acetic acid was determined by mixing 100 μl of supernatant fraction in 200 μl of scintillation fluid (OptiPhase SuperMix, Perkin Elmer). Radioactivity was measured using a Microbeta scintillation counter (1450 MicroBeta Trilux, Wallac). All the test compounds were studied in quadruplicates.

[3] = human H295R adrenocortical carcinoma cells, overnight (16-19 h) with 17α-[21-3H]hydroxypregnenolone, 3H-acetic acid release, 1% DMSO, quadruplicates, read-out: CYP17 inhibition IC50

Structure (SMILES)	IC50 [1]	IC50 [2]	IC50 [2, 3]
CCN(c1ccc(C#N)c(Cl)c1)C1C=C(n2ccnc2)CCC1(C)C (single isomer, unassigned; enantiomer 1) [Ex. 21, 4-((3-(1H-imidazol-1-yl)-6,6-dimethylcyclohex-2-enyl)(ethyl)amino)-2-chlorobenzonitrile (enantiomer 1)]	19 nM	76 nM	
CN(c1ccc(C#N)c(Cl)c1)[C@@H]1C=C(n2ccnc2)[C@H](O)CC1(C)C (single isomer, unassigned; enantiomer 1) [Ex. 253(b), cis-2-Chloro-4-{[4-hydroxy-3-(1H-imidazol-1-yl)-6,6-dimethylcyclohex-2-enyl](methyl)amino}benzonitrile (enantiomer 1)]	140 nM	124 nM	
CCN(c1ccc(C#N)c(C(F)(F)F)c1)C1CCC=C(c2ccncc2OC)C1 (single isomer, unassigned; isomer 4) [Ex. 84 3,4-isomer, 4-(Ethyl(3-(3-methoxypyridin-4-yl)cyclohex-3-en-1-yl)amino)-2-(trifluoromethyl)benzonitrile]	50 nM	96 nM	
CCN(c1ccc(C#N)c(C(F)(F)F)c1)C1CCC=C(c2cncn2CC)C1 (single isomer, unassigned; isomer 4) [Ex. 208 1,5-isomer, 4-(ethyl(3-(1-ethyl-1H-imidazol-5-yl)cyclohex-3-en-1-yl)-amino)-2-(trifluoromethyl)benzonitrile]	34 nM	137 nM	
CCN(c1ccc(C#N)c(C(F)(F)F)c1)C1C=C(n2ccnc2)CCC1 (stereo not shown) [Ex. 63, 4-((3-(1H-imidazol-1-yl)cyclohex-2-en-1-yl)(ethyl)amino)-2-(trifluoromethyl)benzonitrile]	34 nM	70 nM	
CCCn1cncc1C1=CCC(N(CC)c2ccc(C#N)c(C(F)(F)F)c2)C1 (stereo not shown) [Ex. 103, 4-(Ethyl(3-(1-propyl-1H-imidazol-5-yl)cyclopent-3-en-1-yl)amino)-2-(trifluoromethyl)benzonitrile]	58 nM	29 nM	
CCN(c1ccc(C#N)c(C(F)(F)F)c1)C1C=C(n2ccnc2)C2(CC1)CC2 (stereo not shown) [Ex. 107, 4-((4-(1H-imidazol-1-yl)spiro[2.5]oct-4-en-6-yl)(ethyl)amino)-2-(trifluoromethyl)benzonitrile]	51 nM	33 nM	
CCN(c1ccc(C#N)c(C(F)(F)F)c1)[C@@H]1CCCN(c2ccncc2F)C1 [Ex. 160, (R)-4-(Ethyl(1-(3-fluoropyridin-4-yl)piperidin-3-yl)amino)-2-(trifluoromethyl)benzonitrile]	27 nM	111 nM	
CN(c1ccc(C#N)c(C(F)(F)F)n1)C1C=C(n2ccnc2)CCC1(C)C (stereo not shown) [Ex. 250, 6-{[3-(1H-Imidazol-1-yl)-6,6-dimethylcyclohex-2-enyl](methyl)amino}-2-(trifluoromethyl)nicotinonitrile]	205 nM		27 nM
COc1cc(N(C)C2C=C(n3ccnc3)CCC2(C)C)ccc1C#N (stereo not shown) [Ex. 252, 4-{[3-(1H-Imidazol-1-yl)-6,6-dimethylcyclohex-2-enyl](methyl)amino}-2-methoxybenzonitrile]	141 nM		33 nM
CCN(c1ccc(C#N)c(C(F)(F)F)c1)C1CC=C(n2ccnc2)C1(C)C (stereo not shown) [Ex. 275, 4-((3-(1H-imidazol-1-yl)-2,2-dimethylcyclopent-3-en-1-yl)(ethyl)amino)-2-(trifluoromethyl)benzonitrile]	63 nM	82 nM	

Reference: patent US9890139B2, “CYP17 inhibitors/antiandrogens” (Orion Corporation, priority 2013, dated 2018)
